Marks after values point to notes of the source that are not given here. Values belong to the compound of their own block, whether it stands above or below them. Square brackets hold non-standard residues; d marks the D form. Peptide text beside a SMILES is read from it. * marks the point of attachment. Phe(4-Cl) = N[C@@H](Cc1ccc(Cl)cc1)C(=O)O; hArg = N=C(N)NCCCC[C@H](N)C(=O)O; Nle = CCCC[C@H](N)C(=O)O; Abu = CC[C@H](N)C(=O)O; PhAc = O=C(Cc1ccccc1)*
Assays:
[1] = tested on: GH-RH receptor isoforms on membrane fractions of human PC-3 prostate tumors; assay type: binding; conditions: general statement
How it was run: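 Competitive displacement of [^125I]JV-1-42 from crude membranes of human PC-3 prostate tumours grown as nude-mouse xenografts, with unlabelled peptides at 10^−12 to 10^−6 M. Bound radioactivity in the centrifuged pellet gamma-counted; Ki from Munson–Rodbard analysis. Relative affinity = Ki of reference peptide (JV-1-36 or JV-1-38) / Ki of test antagonist.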

[2] = tested on: PC-3 human prostate cancer xenografts; assay: PC-3 xenografts in nude mice, Experiment 2: tumor growth; assay type: in vivo; conditions: for Tumor volume (mm^3) Initial: 5 μg/day groups, at start of treatment; for Tumor volume (mm^3) Final / Tumor volume doubling time / Tumor weight / Tumor volume Final (% inhibition) / Tumor weight (% inhibition): 5 μg/day s.c., 28 days; for Tumor volume Final (% inhibition) / Tumor weight (% inhibition): vs control
Experimental: (§1) Male nude mice were implanted s.c. with 3 mm^3 pieces of PC-3 human hormone-independent prostate cancer tissue on both flanks. When tumors reached a volume of approx. 50 mm^3, the mice were divided into 5 experimental groups with 7 to 8 animals in each group and received single daily injections for 28 days as follows: 1. Control (vehicle solution); 2. JV-1-38 (10 μg/day s.c.); 3 Peptide 31 (10 μg/day s.c.); 4. Peptide 67 (10 μg/day s.c.); 5. Peptide 62 (10 μg/day s.c.). Tumor volumes were measured twice a week. The experiment was ended on day 29 by sacrificing the mice under Isoflurane anesthesia. Resulting tumors were cleaned, weighed, and snap-frozen until further analyses. Trunk blood was collected from the abdominal aorta and serum was separated for RIA measurement of IGF-I. Statistical analyses of the measurement results were done by two-tailed t-test; data are presented as the means±S.E.
(§2) Experiment 2 was similar to Experiment 1, with the difference that Experiment 2 was started when PC-3 tumors had grown to approximately 30 mm^3 in volume. At this time, the animals were divided into 8 experimental groups with 8 animals in each group, and received single daily injections for 28 days as follows. 1. Control (vehicle solution); 2. JV-1-38 (10 μg/day s.c.); 3. Peptide 46 (5 μg/day: s.c.); 4. Peptide 77 (5 μg/day s.c); 5. Peptide 76 (5 μg/day s.c.); 6. Peptide 70 (5 μg/day s.c.); 7 Peptide 79 (5 μg/day s.c.); 8. Peptide 80 (5 μg/day s.c.). Further details of Experiment 2 are the same as for Experiment 1.

IGF-I = assay: PC-3 xenografts, Experiment 2: serum IGF-I (RIA); assay type: in vivo, nude mice; conditions: 5 μg/day s.c., 28 days; for Serum IGF-I (% inhibition): vs control
Description: For the measurement of GH and IGF-I levels in the serum, as well as IGF-I and IGF-II concentrations in the cytosol fraction of tumors, blood samples and tumor samples were collected and processed as described (Braczkowski R, Schally A V, Plonowski A, Varga J L, Groot K, Krupa M, Armatis P, Cancer 95: 1735-1745, 2002), hereby incorporated by reference. Briefly, blood samples are centrifuged to separate the serum, tumors are homogenized and centrifuged to separate the cytosol fraction. Serum GH is then measured by the double-antibody RIA method. Before measurement by RIA, IGF-I and IGF-II are extracted from serum and cytosol fractions using an acid-ethanol cryoprecipitation method that eliminates most of the IGF binding proteins, which can interfere with the RIA. IGF-I concentration is measured by RIA using IGF-I as a standard and goat anti-IGF-I antibody (both from DSL Inc., Webster, Tex.). IGF-II concentration is measured by RIA using human recombinant IGF-II (Bachem) as a standard and anti-IGF-II monoclonal antibody (Amano International Enzyme, Troy, Va.).
as §1, §2

[3] = tested on: hGH-RH(1-29)NH2 induced GH release; assay: Inhibition of GH release in superfused rat pituitary system; assay type: cell-based; conditions: for GH response (% of control) 0 min / GH response (% of control) 30 min / GH response (% of control) 60 min / GH response (% of control) 90 min / GH response (% of control) 120 min: antagonist 30 nM; for GH response (% of control) 0 min: 1 nM hGH-RH(1-29)NH2 at 0 min; for GH response (% of control) 30 min: 1 nM hGH-RH(1-29)NH2 at 30 min; for GH response (% of control) 60 min: 1 nM hGH-RH(1-29)NH2 at 60 min; for GH response (% of control) 90 min: 1 nM hGH-RH(1-29)NH2 at 90 min; for GH response (% of control) 120 min: 1 nM hGH-RH(1-29)NH2 at 120 min
How it was run: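 GH output was quantified by double-antibody RIA in superfusates of rat pituitary cells. Peptides were applied for 9 min at various concentrations before a 3-min 1 nM hGH-RH(1-29)NH2 pulse, with further pulses 30–120 min later; net integral responses given as percent of the original response.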

[4] = tested on: PC-3 human prostate cancer xenografts; assay: PC-3 xenografts in nude mice, Experiment 3: tumor growth; assay type: in vivo; conditions: for Tumor volume (mm^3) Final / Tumor volume doubling time / Tumor weight / Tumor volume Final (% inhibition) / Tumor weight (% inhibition): 10 μg/day s.c., 28 days; for Tumor volume Final (% inhibition) / Tumor weight (% inhibition): vs control; for Tumor volume (mm^3) Initial: at start of treatment
Experimental: Male nude mice were implanted s.c. with 3 mm^3 pieces of PC-3 human hormone-independent prostate cancer tissue on both flanks. When tumors reached a volume of approximately 65 mm^3, the mice were divided into 7 experimental groups with 8 to 9 animals in each group and received single daily injections for 28 days as follows: 1. Control (vehicle solution); 2. JV-1-38 (10 μg/day s.c.); 3. Peptide 35 (10 μg/day s.c.); 4. Peptide 36 (10 μg/day s.c.); 5. Peptide 37 (10 μd/day s.c.); 6. Peptide 39 (10 μg/day s.c.); 7. Peptide 41 (10 μg/day s.c.). Tumor volumes were measured twice a week. The experiment was ended on day 28 by sacrificing the mice under Isofurane anesthesia. Resulting tumors were cleaned, weighed, and snapfrozen until further analyses. Trunk blood was collected from the abdominal aorta and serum was separated for RIA measurement of IGF-I. Statistical analyses of the measurement results were done by ANOVA followed by Fisher test; data are presented as the means±S.E.

Compound: [CH3(CH2)6CO-Tyr^1, D-Arg^2, Phe(pCl)^6, Cit^8, His^9, Tyr(Et)^10, His^11, Abu^15, Nle^27, D-Arg^28, Har^29]hGH-RH(1-29)NH2 [Peptide 79]
binding affinities to the tumoral receptors for GH-RH (in words) [1]: extremely high binding affinities
Tumor volume (mm^3) Initial [2]: 29.1 ± 4.3 mm^3
Tumor volume (mm^3) Final [2]: 139 ± 49.4*# mm^3
Tumor volume doubling time [2]: 13.6 ± 1.8 days
Tumor weight [2]: 153 ± 54.5 mg
Tumor volume Final (% inhibition) [2]: (60%)
Tumor weight (% inhibition) [2]: (46%)
Serum IGF-I (IGF-I): 181 ± 19.8 ng/mL
Serum IGF-I (% inhibition) (IGF-I): 31%

Compound: CCCC[C@H](NC(=O)[C@@H](NC(=O)[C@H](CC(=O)O)NC(=O)[C@H](CCC(N)=O)NC(=O)[C@H](CC(C)C)NC(=O)[C@H](CC(C)C)NC(=O)[C@H](CCCCN)NC(=O)[C@H](CCCNC(=N)N)NC(=O)[C@H](C)NC(=O)[C@H](CO)NC(=O)[C@H](CC(C)C)NC(=O)[C@H](CCC(N)=O)NC(=O)[C@H](CC)NC(=O)[C@H](CC(C)C)NC(=O)[C@@H](NC(=O)[C@H](CCCCN)NC(=O)[C@H](CCCNC(=N)N)NC(=O)[C@H](Cc1ccc(OCC)cc1)NC(=O)[C@H](CCCCNC(=N)N)NC(=O)[C@H](CC(N)=O)NC(=O)[C@@H](NC(=O)[C@H](Cc1ccc(Cl)cc1)NC(=O)[C@@H](NC(=O)[C@H](C)NC(=O)[C@H](CC(=O)O)NC(=O)[C@@H](CCCNC(=N)N)NC(=O)[C@H](Cc1ccc(O)cc1)NC(=O)Cc1ccccc1)[C@@H](C)CC)[C@@H](C)O)C(C)C)[C@@H](C)CC)C(=O)N[C@H](CCCNC(=N)N)C(=O)N[C@@H](CCCCNC(=N)N)C(N)=O [Peptide 41, [PhAc-Tyr^1, D-Arg^2, Phe(pCl)^6, Har^9, Tyr(Et)^10, Abu^15, Nle^27, D-Arg^28, Har^29]hGH-RH(1-29)NH2] (PhAc-Y[dR]DAI[Phe(4-Cl)]TN[hArg]Y(Et)RKVL[Abu]QLSARKLLQDI[Nle][dR][hArg]-NH2)
binding affinities to the tumoral receptors for GH-RH (in words) [1]: extremely high binding affinities
GH response (% of control) 0 min [3]: 47 % of control
GH response (% of control) 30 min [3]: 16 % of control
GH response (% of control) 60 min [3]: 14 % of control
GH response (% of control) 90 min [3]: 15 % of control
GH response (% of control) 120 min [3]: 16 % of control
endocrine antagonistic potency: inhibition of the GH release stimulated by hGH-RH(1-29)NH2 (in words) ([3]; general statement, in vitro and in vivo): high endocrine antagonistic potencies
Tumor volume (mm^3) Final [4]: 341 ± 107* mm^3
Tumor volume doubling time [4]: 28.2 ± 9.85 days
Tumor weight [4]: 579 ± 188 mg
Tumor volume Final (% inhibition) [4]: (54%)
Tumor weight (% inhibition) [4]: (17%)
Tumor volume (mm^3) Initial [4]: 66.7 ± 12.5 mm^3

Compound: [PhAc-Tyr^1, D-Arg^2, Phe(pCl)^6, Har^9, Tyr(Me)^10, Abu^15, Nle^27, D-Arg^28, Har^29]hGH-RH(1-29)NHEt [Peptide 46]
GH response (% of control) 0 min [3]: 91 % of control
GH response (% of control) 30 min [3]: 28 % of control
GH response (% of control) 60 min [3]: 31 % of control
GH response (% of control) 90 min [3]: 56 % of control
GH response (% of control) 120 min [3]: 30 % of control
Tumor volume (mm^3) Initial [2]: 26.6 ± 2.7 mm^3
Tumor volume (mm^3) Final [2]: 246 ± 93.7 mm^3
Tumor volume doubling time [2]: 11.2 ± 1.3 days
Tumor weight [2]: 188 ± 66.1 mg
Tumor volume Final (% inhibition) [2]: (30%)
Tumor weight (% inhibition) [2]: (34%)
Serum IGF-I (IGF-I): 288 ± 17.9 ng/mL
Serum IGF-I (% inhibition) (IGF-I): 0%

Now from value to compound, other results behind:

binding affinities to the tumoral receptors for GH-RH (in words) [1]: extremely high binding affinities
Compound: [CH3(CH2)6CO-Tyr^1, D-Arg^2, Phe(pCl)^6, Cit^8, Amp^9, Tyr(Me)^10, His^11, Abu^15, Nle^27, D-Arg^28, Har^29]hGH-RH(1-29)NH2 [Peptide 76]
Tumor volume (mm^3) Initial [2]: 26.8 ± 3.4 mm^3
Tumor volume (mm^3) Final [2]: 232 ± 30.8 mm^3
Tumor volume doubling time [2]: 9.4 ± 0.6 days
Tumor weight [2]: 226 ± 48.3 mg
Tumor volume Final (% inhibition) [2]: (34%)
Tumor weight (% inhibition) [2]: (20%)
Serum IGF-I (IGF-I): 260 ± 29.7 ng/mL
Serum IGF-I (% inhibition) (IGF-I): 1%

binding affinities to the tumoral receptors for GH-RH (in words) [1]: extremely high binding affinities
Compound: [HOOC(CH2)12CO-Tyr^1, D-Arg^2, Phe(pCl)^6, Cit^8, Amp^9, Tyr(Me)^10, His^11, Abu^15, Nle^27, D-Arg^28, Har^29]hGH-RH(1-29)NH2 [Peptide 77]
Tumor volume (mm^3) Initial [2]: 27.2 ± 3.2 mm^3
Tumor volume (mm^3) Final [2]: 192 ± 44.1 mm^3
Tumor volume doubling time [2]: 10.7 ± 0.8 days
Tumor weight [2]: 138 ± 34.3 mg
Tumor volume Final (% inhibition) [2]: (45%)
Tumor weight (% inhibition) [2]: (51%)
Serum IGF-I (IGF-I): 276 ± 16.8 ng/mL
Serum IGF-I (% inhibition) (IGF-I): 0%

binding affinities to the tumoral receptors for GH-RH (in words) [1]: extremely high binding affinities
Compound: [CH3(CH2)6CO-Tyr^1, D-Arg^2, Phe(pCl)^6, Amp^9, Tyr(Me)^10, Abu^15, Nle^27, D-Arg^28, Har^29]hGH-RH(1-29)NH2 [Peptide 70]
Tumor volume (mm^3) Initial [2]: 26.5 ± 3.7 mm^3
Tumor volume (mm^3) Final [2]: 199 ± 40.4*# mm^3
Tumor volume doubling time [2]: 12.6 ± 2.5 days
Tumor weight [2]: 119 ± 25.3 mg
Tumor volume Final (% inhibition) [2]: (43%)
Tumor weight (% inhibition) [2]: (58%)
Serum IGF-I (IGF-I): 175 ± 12.9 ng/mL
Serum IGF-I (% inhibition) (IGF-I): 33%

binding affinities to the tumoral receptors for GH-RH (in words) [1]: extremely high binding affinities
Compound: [PhAc-Tyr^1, D-Arg^2, Phe(pCl)^6, Har^9, 2-Nal^10, Abu^15, Nle^27, D-Arg^28, Har^29]hGH-RH(1-29)NH2 [Peptide 35]
GH response (% of control) 0 min [3]: 91 % of control
GH response (% of control) 30 min [3]: 57 % of control
GH response (% of control) 60 min [3]: 80 % of control
GH response (% of control) 90 min [3]: 66 % of control
GH response (% of control) 120 min [3]: 72 % of control
antitumor effect on PC-3 tumors (in words) ([4]; 10 μg/day): more potent antitumor effect than reference peptide JV-1-38
Tumor volume (mm^3) Final [4]: 261 ± 52.9** mm^3
Tumor volume doubling time [4]: 17.0 ± 2.32 days
Tumor weight [4]: 286 ± 58.9 mg
Tumor volume Final (% inhibition) [4]: (68%)
Tumor weight (% inhibition) [4]: (59%)
Tumor volume (mm^3) Initial [4]: 65.7 ± 11.3 mm^3
